Test results: ChEMBL document CHEMBL1201862, “PubChem BioAssay data set” (2004)
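Five compound concentrations were applied to cells in 96-well plates for 48 hours; endpoints were derived by simple linear interpolation of the resulting dose-response curve. At the GI50, growth is halved.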 The source made the active and inactive calls. No stated cut-off is given here; in the data, active = GI50 up to about 1.1 µM and inactive = higher.

Key:
Assay in all cases: NCI tumour cell line growth inhibition, 48 h
[1] = tested on: SF-539
[2] = tested on: SNB-75
[3] = tested on: NCI-H460
[4] = tested on: Malme-3M
[5] = tested on: EKVX
[6] = tested on: SK-MEL-28
[7] = tested on: SNB-78
[8] = tested on: HOP-62
[9] = tested on: SF-268
[10] = tested on: DMS-273
[11] = tested on: SF-295
[12] = tested on: NCI-H522
[13] = tested on: SN12C
[14] = tested on: RXF 393
[15] = tested on: DMS-114
[16] = tested on: IGROV-1
[17] = tested on: HCT-116
[18] = tested on: TK-10
[19] = tested on: SK-MEL-2
[20] = tested on: CCRF-CEM
[21] = tested on: UO-31
[22] = tested on: U-251
[23] = tested on: SW-620
[24] = tested on: COLO 205
[25] = tested on: M19-MEL
[26] = tested on: OVCAR-8
[27] = tested on: KM12
[28] = tested on: ACHN
[29] = tested on: NCI-H23
[30] = tested on: HCC 2998
[31] = tested on: SK-MEL-5
[32] = tested on: CAKI-1
[33] = tested on: OVCAR-5
[34] = tested on: A498
[35] = tested on: HOP-92
[36] = tested on: XF498
[37] = tested on: HCT-15
[38] = tested on: KM-20L2
[39] = tested on: RPMI-8226
[40] = tested on: SNB-19
[41] = tested on: HL-60
[42] = tested on: OVCAR-4
[43] = tested on: HT-29
[44] = tested on: DLD-1
[45] = tested on: UACC-257
[46] = tested on: UACC-62
[47] = tested on: MOLT-4
[48] = tested on: OVCAR-3
[49] = tested on: SK-OV-3
[50] = tested on: M14
[51] = tested on: LXFL 529
[52] = tested on: K562
[53] = tested on: SR
[54] = tested on: A549
[55] = tested on: NCI-H226
[56] = tested on: 786-0
[57] = tested on: LOX IMVI
[58] = tested on: HOP-18
[59] = tested on: BT-549
[60] = tested on: MDA-N
[61] = tested on: T47D
[62] = tested on: NCI/ADR-RES
[63] = tested on: MDA-MB-435
[64] = tested on: MCF7
[65] = tested on: DU-145
[66] = tested on: Hs-578T
[67] = tested on: PC-3
[68] = tested on: MDA-MB-231

Measured: GI50

CC(OC(C)(C)C)[C@H](NC(=O)OCC(Cl)(Cl)Cl)C(=O)O (some centres not stated)
> 100 µM: [37]
inactive: [1] > 100 µM | [2] > 100 µM | [3] > 100 µM | [4] > 100 µM | [5] > 100 µM | [6] > 100 µM | [7] > 100 µM | [8] > 100 µM | [9] > 100 µM | [10] > 100 µM | [11] > 100 µM | [12] > 100 µM | [13] > 100 µM | [14] 87.9 µM | [15] > 100 µM | [16] > 100 µM | [17] > 100 µM | [18] > 100 µM | [19] > 100 µM | [20] > 100 µM | [21] > 100 µM | [22] > 100 µM | [23] > 100 µM | [24] > 100 µM | [25] > 100 µM | [26] > 100 µM | [27] > 100 µM | [28] > 100 µM | [29] > 100 µM | [30] > 100 µM | [31] > 100 µM | [32] > 100 µM | [33] > 100 µM | [34] > 100 µM | [35] > 100 µM | [36] > 100 µM | [38] > 100 µM | [39] > 100 µM | [40] > 100 µM | [41] > 100 µM | [42] > 100 µM | [43] > 100 µM | [44] > 100 µM | [45] > 100 µM | [46] > 100 µM | [47] > 100 µM | [48] > 100 µM | [49] > 100 µM | [50] > 100 µM | [51] > 100 µM | [52] > 100 µM | [53] > 100 µM | [54] > 100 µM

CCCNC(=S)NNC(=O)CSc1nc(-c2ccccc2)c(-c2ccccc2)[nH]1
49.3 µM: [37]
inactive: [1] 90.6 µM | [2] 49.1 µM | [3] 39.9 µM | [4] 22.1 µM | [55] 91.6 µM | [5] 37 µM | [6] > 100 µM | [7] > 100 µM | [8] > 100 µM | [9] > 100 µM | [10] 34.8 µM | [11] 54.6 µM | [12] 26.7 µM | [13] 74 µM | [15] > 100 µM | [16] 65 µM | [17] 94.4 µM | [18] 70.5 µM | [19] > 100 µM | [20] 38.1 µM | [21] 30.8 µM | [22] 56.1 µM | [23] 99.3 µM | [24] 39 µM | [25] 45 µM | [26] 73.1 µM | [27] 33 µM | [28] 46.7 µM | [29] 76 µM | [31] 25.9 µM | [32] 33.3 µM | [33] > 100 µM | [34] 77.6 µM | [35] 23.5 µM | [36] 47.4 µM | [38] 84.1 µM | [56] 37 µM | [39] 28.4 µM | [40] 88.1 µM | [41] 23.2 µM | [42] 45.1 µM | [43] 42 µM | [44] 70.3 µM | [45] 45.6 µM | [46] > 100 µM | [47] 24.2 µM | [48] 28 µM | [49] > 100 µM | [50] 24.1 µM | [51] 27.9 µM | [57] 48.2 µM | [53] 29.2 µM | [54] 75.5 µM

COc1cc(/C=C/C(=O)C(C)(C)C)cc(OC)c1OC
61.8 µM: [37]
inactive: [1] 33.3 µM | [2] 25.9 µM | [3] 25.5 µM | [4] 71.8 µM | [55] 33.6 µM | [5] 45.7 µM | [6] 63 µM | [8] > 100 µM | [9] 33.9 µM | [10] 40.1 µM | [11] 38.9 µM | [12] 29 µM | [13] 34.3 µM | [14] 28.4 µM | [15] 25.6 µM | [17] 29.9 µM | [18] > 100 µM | [19] 32.7 µM | [20] 33.2 µM | [21] > 100 µM | [22] 37.8 µM | [23] 32.7 µM | [58] > 100 µM | [24] 40 µM | [25] 31.8 µM | [26] 33.4 µM | [27] 24.8 µM | [28] 39.7 µM | [29] 29.9 µM | [30] 48.2 µM | [31] 42.3 µM | [32] 50.1 µM | [33] > 100 µM | [35] 41.1 µM | [36] 82 µM | [38] 51.1 µM | [56] 53.7 µM | [39] 34.3 µM | [40] > 100 µM | [41] 21.1 µM | [42] 14.8 µM | [43] 38 µM | [44] 37.9 µM | [45] 28.1 µM | [46] 36.9 µM | [47] 32.8 µM | [48] 37.2 µM | [49] 29.8 µM | [50] 33.3 µM | [51] 22.8 µM | [57] 19.7 µM | [52] 37.6 µM | [53] 30.2 µM | [54] 32.2 µM

c1nc(N2CC2)c2cnn(C3CCCCO3)c2n1 (configuration not stated)
> 100 µM: [37]
inactive: [1] > 100 µM | [2] > 100 µM | [3] > 100 µM | [59] > 100 µM | [4] > 100 µM | [55] > 100 µM | [5] > 100 µM | [6] > 100 µM | [7] > 100 µM | [8] > 100 µM | [9] > 100 µM | [10] > 100 µM | [60] > 100 µM | [11] > 100 µM | [61] > 100 µM | [12] > 100 µM | [13] > 100 µM | [14] > 100 µM | [15] > 100 µM | [16] > 100 µM | [17] > 100 µM | [18] > 100 µM | [19] > 100 µM | [20] > 100 µM | [21] > 100 µM | [22] > 100 µM | [23] > 100 µM | [24] > 100 µM | [25] > 100 µM | [26] > 100 µM | [27] > 100 µM | [28] > 100 µM | [29] > 100 µM | [30] > 100 µM | [31] > 100 µM | [32] > 100 µM | [33] > 100 µM | [62] > 100 µM | [34] > 100 µM | [35] > 100 µM | [36] > 100 µM | [38] > 100 µM | [56] > 100 µM | [39] > 100 µM | [40] > 100 µM | [41] > 100 µM | [42] > 100 µM | [43] > 100 µM | [63] > 100 µM | [64] > 100 µM | [44] > 100 µM | [65] > 100 µM | [45] > 100 µM | [46] > 100 µM | [47] > 100 µM | [66] > 100 µM | [48] > 100 µM | [49] > 100 µM | [67] > 100 µM | [50] > 100 µM | [51] > 100 µM | [57] > 100 µM | [52] 36.6 µM | [68] > 100 µM | [53] > 100 µM | [54] > 100 µM

CC(=O)O[C@]12CCCCCC1C1(O)C(O)CCCC[C@H]12 (some centres not stated)
> 100 µM: [37]
inactive: [2] 14.7 µM | [3] > 100 µM | [4] > 100 µM | [55] > 100 µM | [5] > 100 µM | [6] > 100 µM | [7] > 100 µM | [8] > 100 µM | [9] > 100 µM | [10] > 100 µM | [11] > 100 µM | [12] > 100 µM | [13] > 100 µM | [14] > 100 µM | [15] > 100 µM | [18] > 100 µM | [19] > 100 µM | [20] > 100 µM | [21] > 100 µM | [22] > 100 µM | [23] > 100 µM | [24] > 100 µM | [25] > 100 µM | [26] > 100 µM | [27] > 100 µM | [28] > 100 µM | [29] > 100 µM | [31] > 100 µM | [36] > 100 µM | [38] > 100 µM | [56] > 100 µM | [39] > 100 µM | [40] > 100 µM | [41] > 100 µM | [42] > 100 µM | [43] > 100 µM | [45] > 100 µM | [46] > 100 µM | [47] > 100 µM | [49] > 100 µM | [50] > 100 µM | [51] > 100 µM | [57] > 100 µM | [52] > 100 µM | [53] > 100 µM | [54] > 100 µM
